Measurements reported in patent US6906078B2, “Method of using (H+/K+) ATPase inhibitors as antiviral agents” (Pharmacia Corporation, priority 1994, dated 2005).
Like-named read-outs stand apart in the source and are kept apart here.

Experiments:
[1] = target: T1, (H+/K+)-ATPase (Canis lupus familiaris, UniProt P50996); assay: Inhibition of (H+/K+)-ATPase from canine gastric mucosa (inorganic phosphate release); type: biochemical; conditions: canine gastric mucosa microsomes, pH 6.0, 30 min preincubation at 37° C.; read-out: (H+/K+)-ATPase IC50
T1 construct: The microsomes retained at the 15%-30% sucrose interface, after centrifugation at 250,000×g for sixty minutes, were used as the source of (H^+/K^+)-ATPase; from tissue; host or cells: gastric glandular mucosa of mongrel dogs (microsomal fraction, lyophilized)
Method in brief: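 Lyophilised gastric microsomes (sucrose-gradient 15%/30% interface fraction from dog mucosa, ~25 mcg protein) preincubated with compound 30 min at 37° C in 20 mM MES-Tris pH 6.0, 5 mM MgCl2, 25 mM sucrose, then 30 min more after 4 mM Tris-ATP. Released phosphate read by molybdate/ascorbate at 870 nm; activity = K+-stimulated (20 mM KCl) minus basal.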

[2] = test system: gastric acid secretion; assay: Inhibition of gastric acid secretion in gastric fistula beagle dogs (histamine-stimulated); type: in vivo; conditions: Canis lupus familiaris, 4 h, histamine-stimulated, four-hour period, read-out: Gastric-Fistula Beagle % Inhibition (3 mg/kg dose)
Description: Adult female beagle dogs weighing 6 to 11 kilograms obtained from Laboratory Research Enterprises (Kalamazoo, Mich.) or from Hazelton Research Animals (Cumberland, Va.) were surgically implanted with a simple Thomas-type gastric cannula. After recovery from surgery, the dogs were trained to stand quietly, fully conscious, in Pavlov-type dog restraining slings and were acclimated to intravenous infusion of histamine dihydrochloride. During the course of these studies, no dog was used more than once a week. All dogs were deprived of food, but not water, for 18 hours prior to each assay. Each dog was initially infused with 0.15 M sodium chloride solution at a constant rate of […]. The volume of gastric secretions, collected in plastic bottles affixed to the cannula, were measured to the nearest 0.1 ml at 30 minute intervals. One of the following protocols was followed, depending on the route chosen for administration of test compound.
Intravenous dosing: Following a 30-minute basal secretion period, test compounds were administered intravenously (i.v.). At the end of an additional 30 minute period, the saline infusion was replaced with histamine dihydrochloride in saline administered at a rate 15 mcg per kilogram of body weight per hour. Histamine stimulation was maintained for a maximum of four hours during which time gastric secretions were collected every 30 minutes. The pH and titratable acidity were determined for samples from each collection period.
Intragastric dosing: Following a 30-minute basal secretion period, he collection bottles were removed, dosing plugs here inserted, and test compounds were administered intragastrically (i.g.) At the end of a 30-minute drug absorption period, the stomachs were emptied, the collection bottles were reattached, and collections were resumed at 30-minute intervals. Simultaneously, the saline infusion was replaced with a continuous intravenous infusion of histamine dihydrochloride in saline administered for four hours at a rate 15 mcg per kilogram of body weight per hour.
Intraduodenal dosing: Dogs were also equipped with duodenal cannulas for intraduodenal (i.d.) administration of test compounds. Dosing was otherwise performed as described for intragastric dosing.
Data from each protocol were analyzed for three gastric sample variables: volume of gastric juice, acid concentration, and total acid output. Percent inhibition for each four-hour experimental period was determined for each parameter by comparison with 3 to 4 controls in which […]. Estimates of ED50's were determined from dose response curves.

[3] = test system: gastric acid secretion; assay: Inhibition of gastric acid secretion in meal-stimulated Pavlov pouch dog; type: in vivo, beagle dogs; conditions: 3 mg/kg, four-hour period
Protocol: Adult female beagle dogs weighing 6 to 10 kilograms were obtained from Laboratory Research Enterprises (Kalamazoo, Mich.) or from Hazelton Research Animals (Cumberland, Va.). Surgical implantation of a Thomas-type gastric cannula into an innervated Pavlov pouch of each dog was performed by the method reported by L. Burrows et al., J. Surgical Res., 4, 147 (1964). After recovery from surgery, the dogs were trained to stand quietly, fully conscious, in Pavlov-type dog restraining slings. All dogs were deprived of food, but not water, for 24 hours prior to each assay. Basal acid secretion was measured by collecting from the cannulas for 30 minutes before dosing with a test compound. Solutions of the test compounds in iso-osmotic phosphate buffer (pH 7.4) were given either intravenously or directly into the Pavlov pouch. After 30 minutes the pouch was drained. The dogs were then fed 320 grams of dog food and gastric acid secretions were collected each half hour for four hours. Controls were determined in the same way except that only food (i.e., no test compound) was administered.
Data were analyzed for three different variables: volume of gastric juice, acid concentration, and total acid output. Percent inhibition for the four-hour experimental period was determined for each parameter by comparison with 3 to 4 controls. Estimates of ED50 were determined from dose response curves.

T1 sequence (P50996 whole entry): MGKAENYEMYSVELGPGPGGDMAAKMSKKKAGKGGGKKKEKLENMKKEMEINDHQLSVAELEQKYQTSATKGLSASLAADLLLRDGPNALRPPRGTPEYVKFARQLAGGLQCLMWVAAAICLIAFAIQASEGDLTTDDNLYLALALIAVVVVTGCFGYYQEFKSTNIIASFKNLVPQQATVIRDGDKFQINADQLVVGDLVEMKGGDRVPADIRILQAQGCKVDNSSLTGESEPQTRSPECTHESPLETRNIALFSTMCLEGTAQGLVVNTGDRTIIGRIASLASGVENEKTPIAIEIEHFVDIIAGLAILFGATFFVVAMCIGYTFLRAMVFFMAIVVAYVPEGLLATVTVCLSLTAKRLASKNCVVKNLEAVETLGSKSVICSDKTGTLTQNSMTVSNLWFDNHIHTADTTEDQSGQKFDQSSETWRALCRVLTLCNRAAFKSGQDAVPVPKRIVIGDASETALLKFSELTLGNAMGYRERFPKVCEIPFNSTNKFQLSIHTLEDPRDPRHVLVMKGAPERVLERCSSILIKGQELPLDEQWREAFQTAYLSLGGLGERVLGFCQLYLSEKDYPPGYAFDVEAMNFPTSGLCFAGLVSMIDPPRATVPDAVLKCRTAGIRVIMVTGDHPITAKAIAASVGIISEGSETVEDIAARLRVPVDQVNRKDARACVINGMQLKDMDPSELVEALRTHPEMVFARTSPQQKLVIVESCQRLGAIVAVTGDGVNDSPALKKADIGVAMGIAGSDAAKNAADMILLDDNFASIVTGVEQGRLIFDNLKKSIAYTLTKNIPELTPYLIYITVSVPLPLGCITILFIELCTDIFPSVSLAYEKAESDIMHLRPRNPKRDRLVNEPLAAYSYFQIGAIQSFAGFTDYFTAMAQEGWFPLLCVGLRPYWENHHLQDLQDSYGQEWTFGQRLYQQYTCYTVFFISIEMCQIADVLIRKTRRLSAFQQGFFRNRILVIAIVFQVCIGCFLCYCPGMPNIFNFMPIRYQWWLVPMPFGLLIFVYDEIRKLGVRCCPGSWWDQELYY
T1 sequence (P33704 whole entry partner): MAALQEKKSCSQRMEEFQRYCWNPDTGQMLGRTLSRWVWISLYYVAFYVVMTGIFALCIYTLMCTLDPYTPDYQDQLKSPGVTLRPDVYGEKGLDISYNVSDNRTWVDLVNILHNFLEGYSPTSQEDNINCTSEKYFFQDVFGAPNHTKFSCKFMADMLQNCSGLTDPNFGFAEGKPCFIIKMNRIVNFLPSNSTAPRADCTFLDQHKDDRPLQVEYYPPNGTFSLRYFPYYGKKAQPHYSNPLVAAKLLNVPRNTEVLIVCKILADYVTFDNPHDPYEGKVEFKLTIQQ

Row | SMILES | IC50 [1] | inhibition in vivo at 3 mg/kg ([2]; intraduodenal, 3 mg/kg i.d.) | inhibition in vivo at 3 mg/kg ([2]; iv, 3 mg/kg i.v.) | inhibition in vivo at 3 mg/kg ([2]; po, 3 mg/kg i.g.) | Pavlov-Pouch Dog % Inhibition (dose (mg/kg)) [3] | melting point
1 | COc1ccc2[nH]c([S+]([O-])Cc3cc(C)ccc3N)nc2c1 (stereo not shown) [Example 34, 2-[[(5-Methoxy-1H-benzimidazol-2-yl)sulfinyl]methyl]-4-methylbenzenamine] | 4.2 µM | 66% | 91% | 43% | 79 (3 mg/kg) % | 148 to 149 °C
2 | CN(C)c1ccccc1C[S+]([O-])c1nc2ccccc2[nH]1 (stereo not shown) [Example 4, 2-[(1H-Benzimidazol-2-ylsulfinyl)methyl]N,N-dimethylbenzenamine] | 0.7 µM |  | 14% |  | 3 (3 mg/kg) % | 107 to 109 °C
